Data published in the supplement of paper PMC11451515.

Test system: NOMO1
Experiment: cell viability relative to DMSO control; higher = less cytotoxic
Conditions: 48 h
How it was run: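 Three leukemia lines were tested: NOMO1 and SEM at 500 cells/well and P12-Ichikawa at 1000 cells/well. Each was adapted for at least four passages in each medium and seeded in 5 μl in 1536-well plates, and library compounds in DMSO were pin-dosed from 47 μM to 0.79 nM in 11 threefold steps. After 48 h at 37°C, CellTiter-Glo One luminescence was read. Viability is a percentage relative to DMSO wells on each plate, with cell-free wells as background.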

[1] = HPLM + 10% dialyzed FBS, 0.000781 µM
[2] = HPLM + 10% dialyzed FBS, 0.00234 µM
[3] = HPLM + 10% dialyzed FBS, 0.00702 µM
[4] = HPLM + 10% dialyzed FBS, 0.0211 µM
[5] = HPLM + 10% dialyzed FBS, 0.0632 µM
[6] = HPLM + 10% dialyzed FBS, 0.19 µM
[7] = HPLM + 10% dialyzed FBS, 0.569 µM
[8] = HPLM + 10% dialyzed FBS, 1.71 µM
[9] = HPLM + 10% dialyzed FBS, 5.12 µM
[10] = HPLM + 10% dialyzed FBS, 15.4 µM
[11] = HPLM + 10% dialyzed FBS, 46.1 µM
[12] = RPMI 5 mM glucose + 10% FBS, 0.000781 µM
[13] = RPMI 5 mM glucose + 10% FBS, 0.00234 µM
[14] = RPMI 5 mM glucose + 10% FBS, 0.00702 µM
[15] = RPMI 5 mM glucose + 10% FBS, 0.0211 µM
[16] = RPMI 5 mM glucose + 10% FBS, 0.0632 µM
[17] = RPMI 5 mM glucose + 10% FBS, 0.19 µM
[18] = RPMI 5 mM glucose + 10% FBS, 0.569 µM
[19] = RPMI 5 mM glucose + 10% FBS, 1.71 µM
[20] = RPMI 5 mM glucose + 10% FBS, 5.12 µM
[21] = RPMI 5 mM glucose + 10% FBS, 15.4 µM
[22] = RPMI 5 mM glucose + 10% FBS, 46.1 µM
[23] = RPMI 5 mM glucose + 10% dialyzed FBS, 0.000781 µM
[24] = RPMI 5 mM glucose + 10% dialyzed FBS, 0.00234 µM
[25] = RPMI 5 mM glucose + 10% dialyzed FBS, 0.00702 µM
[26] = RPMI 5 mM glucose + 10% dialyzed FBS, 0.0211 µM
[27] = RPMI 5 mM glucose + 10% dialyzed FBS, 0.0632 µM
[28] = RPMI 5 mM glucose + 10% dialyzed FBS, 0.19 µM
[29] = RPMI 5 mM glucose + 10% dialyzed FBS, 0.569 µM
[30] = RPMI 5 mM glucose + 10% dialyzed FBS, 1.71 µM
[31] = RPMI 5 mM glucose + 10% dialyzed FBS, 5.12 µM
[32] = RPMI 5 mM glucose + 10% dialyzed FBS, 15.4 µM
[33] = RPMI 5 mM glucose + 10% dialyzed FBS, 46.1 µM

Row | Compound | cell viability [1] | cell viability [2] | cell viability [3] | cell viability [4] | cell viability [5] | cell viability [6] | cell viability [7] | cell viability [8] | cell viability [9] | cell viability [10] | cell viability [11] | cell viability [12] | cell viability [13] | cell viability [14] | cell viability [15] | cell viability [16] | cell viability [17] | cell viability [18] | cell viability [19] | cell viability [20] | cell viability [21] | cell viability [22] | cell viability [23] | cell viability [24] | cell viability [25] | cell viability [26] | cell viability [27] | cell viability [28] | cell viability [29] | cell viability [30] | cell viability [31] | cell viability [32] | cell viability [33]
1 | C[C@@]1(C(=O)Nc2ccc(F)nc2)CCCN1c1nc(Nc2cc(C3CC3)[nH]n2)c2cccn2n1 | 83.2% | 108% | 108% | 89.9% | 90.7% | 71.2% | 77.4% | 67.5% | 44.9% | 46.3% | 62% | 104% | 108% | 120% | 110% | 108% | 93.3% | 112% | 86% | 62.9% | 56.8% | 68.5% | 96.6% | 108% | 105% | 102% | 97.9% | 85.4% | 80% | 86.2% | 51.6% | 55.2% | 60%
2 | CCOC(=O)Nc1ccc(NCc2ccc(F)cc2)nc1N | 123% | 137% | 114% | 127% | 117% | 117% | 108% | 101% | 104% | 109% | 120% | 118% | 105% | 103% | 111% | 110% | 127% | 101% | 105% | 103% | 114% | 106% | 108% | 113% | 110% | 123% | 122% | 109% | 119% | 119% | 112% | 106% | 102%
3 | CCOc1cc(CC(=O)N[C@@H](CC(C)C)c2ccccc2N2CCCCC2)ccc1C(=O)O | 117% | 120% | 139% | 138% | 141% | 126% | 46.7% | 43.4% | 37% | 41.1% | 34.7% | – | – | – | – | – | – | – | – | – | – | – | – | – | – | – | – | – | – | – | – | – | –
4 | COc1cc(O)c2c(c1)C(=O)c1cc(C)cc(O)c1C2=O | – | – | – | – | – | – | – | – | – | – | – | 107% | 119% | 111% | 115% | 102% | 113% | 101% | 110% | 105% | 92.3% | 31.2% | 115% | 114% | 110% | 110% | 120% | 118% | 109% | 119% | 120% | 85.4% | 24.3%
5 | NC/1=N/C(=O)N(/C=N1)[C@@H]2O[C@H](CO)[C@@H](O)[C@H]2O | 108% | 108% | 111% | 101% | 106% | 115% | 108% | 100% | 94.8% | 65.8% | 21.2% | 100% | 109% | 91.5% | 93.6% | 99.9% | 106% | 96.9% | 90.6% | 81.3% | 52.7% | 20.7% | 110% | 112% | 106% | 110% | 116% | 111% | 109% | 91.6% | 72.6% | 32.6% | 14.6%
6 | CC/1=C(/N2[C@H](SC1)[C@H](NC(=O)C(N)C3=CC=CC=C3)C2=O)C(O)=O (stereo not given in full) | 106% | 118% | 118% | 137% | 135% | 136% | 145% | 152% | 137% | 106% | 141% | – | – | – | – | – | – | – | – | – | – | – | 109% | 135% | 123% | 148% | 145% | 132% | 149% | 137% | 154% | 146% | 130%
7 | OCc1ccc(-c2ccc(-c3ccc(CO)s3)o2)s1 | 124% | 121% | 138% | 147% | 124% | 114% | 122% | 107% | 118% | 108% | 96.2% | – | – | – | – | – | – | – | – | – | – | – | – | – | – | – | – | – | – | – | – | – | –
8 | CC1(C)C(N(O)C(=O)Nc2ccc(Cl)cc2)N(c2ccc(Cl)cc2)C(=O)N1CC(=O)N/N=C/C=C/c1ccc([N+](=O)[O-])o1 (stereo not given) | 121% | 118% | 125% | 124% | 124% | 115% | 123% | 116% | 108% | 95.8% | 50.2% | 116% | 111% | 109% | 120% | 110% | 104% | 102% | 110% | 97.4% | 104% | 75.1% | 106% | 107% | 103% | 124% | 122% | 121% | 111% | 111% | 108% | 117% | 71.3%
9 | CC[C@]1(O)C[C@@H]2CN(CCc3c([nH]c4ccccc34)[C@@](C(=O)OC)(c3cc4c(cc3OC)N(C)[C@H]3[C@@](O)(C(N)=O)[C@H](O)[C@]5(CC)C=CCN6CC[C@]43[C@@H]65)C2)C1 | – | – | – | – | – | – | – | – | – | – | – | 110% | 113% | 132% | 103% | 96.4% | 25.3% | 21.1% | 25.8% | 21.4% | 22.8% | 21% | 116% | 114% | 106% | 122% | 121% | 44.6% | 24.6% | 28.2% | 24.2% | 23.6% | 20.7%
